The record followed here is patent US20250101065A1, “REVERSE PEPTIDES FROM CORONAVIRUS FOR IMMUNOGENIC PURPOSES” (Emergex Vaccines Holding Limited, priority 2021, published 2025).

No end group written: not given here.

One test has as its system CD3+ T cells of PBMCs. Briefly: Flow cytometry analysis of T cell surface markers after peptide stimulation of PBMCs. The format is cell-based, human. As to the method:
At day 7 post-stimulation, remaining PBMCs were resuspended in flow cytometry buffer (PBS+1% BSA+2 mM EDTA) at a concentration of 1×10^6 cells/mL, and blocked for at least 10 minutes. Cells were then aliquoted in a 96-well plate, centrifuged (5 mins/[…]/300×g), and resuspended in 45 μL buffer. Live/Dead stain was added (Fixable Near IR) at 1 μL in 1000 μL, and cells incubated at […] for 10 minutes in the dark. 120 μL buffer was added, samples were centrifuged for 5 mins, supernatants discarded and wash repeated with 200 μL buffer. Cells were then resuspended in buffer containing antibodies to T cell markers at the appropriate concentration (final staining volume 50 μL) and incubated for at least 30 minutes in the dark at […]
120 μL buffer was added to cell samples, centrifuged for 5 mins, supernatants discarded. This wash step was then repeated. Compensation beads were incubated with the individual antibodies at the same concentration. Voltages on the Attune flow cytometer were adjusted using antibody-stained compensation beads, as well as unstained and NIR-stained cells.
Acquisition was set to acquire at least 150,000 events on CD3 gated cells.
PBMCs were stained with a panel of antibodies (as listed in the previous section) against cell surface markers to characterize different T cell populations, such as naïve T cells (A), Central memory T cells (B), Effector memory T cells (C) and (D), and resident memory T cells (E). In addition, activation markers were also analysed (F) to (I). The percentage of positive cells gated on CD3+T cell populations were plotted.
On the technique in general: A flow cytometer gives signals particle by particle.

A further test deals with human PBMCs. Briefly: IFN-gamma ELISPOT after stimulation of PBMCs with negative sense SARS-COV-2 peptides. The format is cell-based.
Where [1] appears, read: PBMCs from EVB00028, day 7 post-stimulation.

On to “LYVALLVALLTCQ [SEQ ID NO: 6, LYVALLVALLTCQ]”, for which the “Activation of CD3+ cells (upregulation of CD69, CD38, OX40/CD25, PDL1/CD25)” value in the test on CD3+ T cells of PBMCs (setting [1]) is “induced activation”; with CD3+ T cells of PBMCs (PBMCs from EVB00033, day 7 post-stimulation), “similarly activated”. The “IFN-gamma ELISPOT reactivity” value in the test on human PBMCs (all three donors (EVB00028, EVB00031, EVB00033), 7 days stimulation, 24 h re-stimulation) is given as “strong reactivity”.
For VALLTCQTIGLCN [SEQ ID NO: 11], the “Activation of CD3+ cells (upregulation of CD69, CD38, OX40/CD25, PDL1/CD25)” value in the test with CD3+ T cells of PBMCs (setting [1]) was “induced activation”. Besides, the “IFN-gamma ELISPOT reactivity” value in the test on human PBMCs (donor EVB00033) was “reacted strongly”.
Regarding VFTLHSRTSF [SEQ ID NO: 12], the “IFN-gamma ELISPOT reactivity” value in the test on human PBMCs (donors EVB00028 and EVB00031) was “reacted strongly”.
